From patent US7655392B2, “Quenching methods for red blood cell inactivation process” (priority 2004, dated 2010)
Marks after values point to notes of the source that are not given here.

Assays:
Yersinia enterocolitica = assay: Inactivation of Yersinia enterocolitica in RBC (colony count); assay type: cell-based
red blood cells = assay: Gel card agglutination with rabbit anti-acridine sera; assay type: cell-based
Method: The reduction in modification of red blood cells in the methods of the present invention can be evaluated by several assays. In one assay, rabbit polyclonal sera that is reactive with acridine is produced by injecting New Zealand White rabbits with an acridine compound conjugated to KLH.
This is conjugated to KLH by adding 10 μL of the compound (10 mM in de-ionized water) to 990 μL of a buffered solution of KLH (10 mg/mL in 50 mM Phosphate, 150 mM NaCl, PBS pH=7.2 with proprietary stabilizer, Pierce Cat # 77600) and incubating at room temperature for over 20 hours. Following this incubaton, the conjugated KLH is isolated from the unreacted S-197 and S-197 by-products by passing through a desalting column (e.g. D-salt columns, Pierce) and eluting in PBS buffer. The colored fractions of the solutions are then combined and the KLH conjugates are characterized by the ratio of absorbance at 210 and 410 nm. The acridine-KLH conjugate solutions are mixed with Complete Freund's Adjuvant for intramuscular injection into the rabbits at multiple sites to immunize the rabbits. […] The resulting solution can be assayed for agglutination by passing through a Buffer Gel Card (Micro Typing Systems, Pompano Beach, Fla.). The gel cards are designed to allow non-agglutinated red blood cells to pass through, while cells agglutinated by reaction with the rabbit sera and cross reacting with the anti-rabbit antibody will remain at the top of the gel. The cards are scored as 0, 1+, 2+, 3+, or 4+, where 0 indicates all cells are intact and are at the bottom of the gel, while 4+ indicates complete agglutination, with all cells at the top of the gel.
In these, the appropriate amount of 600 mM stock was added, mixed with an appropriate volume of 8% dextrose to provide the same volume addition to each RBC sample where in one study, with varied glutathione concentrations, the pH was measured after adding glutathione and after adding PIC-1. […] Similar samples were also assessed for the inactivation of S. epidermidis. […] For gel card analysis, after incubation, the RBC were washed in BBS and were diluted in BBS to a final hematocrit of 4%. A 25 μL aliquot of each was mixed with 15 μL of rabbit polyclonal anti-acridine sera diluted either 1:4 or 1:100 in BBS and the mixture was incubated at 37° C. for 30 minutes. The cells were subsequently washed with 1.5 mL BBS. […]
Heterophile antibodies are naturally occurring antibodies that recognize RBC from another species in a non-specific fashion. […] All samples were mixed with quencher first, then PIC-1 at 0.2 mM.
The standard condition was included, i.e. 0.2 mM PIC-1 and 2 mM acidic glutathione added together.

[1] = 0.2 mM PIC-1, 2 mM acidic glutathione (0 eq base), no delay
[2] = 20 mM cysteine+1 eq base, then 0.2 mM PIC-1 after 10 min
[3] = 20 mM cysteine+2 eq base, then 0.2 mM PIC-1 after 10 min
[4] = 20 mM glutathione+2 eq base, then 0.2 mM PIC-1 after 10 min

O=C(CCNc1c2ccccc2nc2ccccc12)OCCN(CCCl)CCCl [PIC-1]
Log Y. enterocolitica reduction (Yersinia enterocolitica; [1]): 8.49 Log
Log Y. enterocolitica titer (Yersinia enterocolitica; [1]): 0.00 Log
Log Y. enterocolitica reduction (Yersinia enterocolitica; [2]): 4.04 Log
Log Y. enterocolitica titer (Yersinia enterocolitica; [2]): 4.45 Log
Log Y. enterocolitica reduction (Yersinia enterocolitica; [3]): 5.79 Log
Log Y. enterocolitica titer (Yersinia enterocolitica; [3]): 2.70 Log
Log Y. enterocolitica reduction (Yersinia enterocolitica; [4]): 5.95 Log
Log Y. enterocolitica titer (Yersinia enterocolitica; [4]): 2.54 Log
reduction of log inactivation relative to the standard condition (Yersinia enterocolitica; 20 mM neutralized cysteine or neutralized glutathione, 0.2 mM PIC-1): about 2.5 log
Gel card score (red blood cells; Table 11A samples, rabbit sera 1:4, all samples): 4+
Gel card score (red blood cells; Table 11B: 2 mM GSH, 1 eq. base, 0.2 mM PIC-1, sera 1:100, secondary 1:4): 4+
Gel card score (red blood cells; Table 11B: 2 mM GSH, 2 eq. base, 0.2 mM PIC-1, sera 1:100, secondary 1:4): 3+
Gel card score (red blood cells; Table 11B: 2 mM GSH, no added base, 0.2 mM PIC-1, sera 1:100, secondary 1:4): 3+
Gel card score (red blood cells; Table 11B: 5 mM GSH, 1 eq. base, 0.2 mM PIC-1, sera 1:100, secondary 1:4): 3+
Gel card score (red blood cells; Table 11B: 5 mM GSH, 2 eq. base, 0.2 mM PIC-1, sera 1:100, secondary 1:4): 2+
Gel card score (red blood cells; Table 11B: 5 mM GSH, no added base, 0.2 mM PIC-1, sera 1:100, secondary 1:4): 3+/MX*
Gel card score (red blood cells; Table 11B: 10 mM GSH, 1 eq. base, 0.2 mM PIC-1, sera 1:100, secondary 1:4): 2+
Gel card score (red blood cells; Table 11B: 10 mM GSH, 2 eq. base, 0.2 mM PIC-1, sera 1:100, secondary 1:4): 1+
Gel card score (red blood cells; Table 11B: 10 mM GSH, no added base, 0.2 mM PIC-1, sera 1:100, secondary 1:4): 3+/MX*
Gel card score (red blood cells; Table 11B: 20 mM GSH, 1 eq. base, 0.2 mM PIC-1, sera 1:100, secondary 1:4): 1+
Gel card score (red blood cells; Table 11B: 20 mM GSH, 2 eq. base, 0.2 mM PIC-1, sera 1:100, secondary 1:4): 0
Gel card score (red blood cells; Table 11B: 20 mM GSH, no added base, 0.2 mM PIC-1, sera 1:100, secondary 1:4): 3+
Gel card score (red blood cells; Table 12: 2 mM acidic GSH, 0.2 mM PIC-1, sera 1:4, no secondary Ab): 3+
Gel card score (red blood cells; Table 12: 2 mM acidic GSH, 0.2 mM PIC-1, sera 1:4, secondary Ab 1:4): 4+
Gel card score (red blood cells; Table 12: 2 mM acidic GSH, 0.2 mM PIC-1, sera 1:100, no secondary Ab): 0
Gel card score (red blood cells; Table 12: 2 mM acidic GSH, 0.2 mM PIC-1, sera 1:100, secondary Ab 1:4): 4
Gel card score (red blood cells; Table 12: 5 mM Cys 1eq, 0.2 mM PIC-1, sera 1:4, no secondary Ab): 1+
Gel card score (red blood cells; Table 12: 5 mM Cys 1eq, 0.2 mM PIC-1, sera 1:4, secondary Ab 1:4): 4+
Gel card score (red blood cells; Table 12: 5 mM Cys 1eq, 0.2 mM PIC-1, sera 1:100, no secondary Ab): 0
Gel card score (red blood cells; Table 12: 5 mM Cys 1eq, 0.2 mM PIC-1, sera 1:100, secondary Ab 1:4): 1*
Gel card score (red blood cells; Table 12: 10 mM Cys 1eq, 0.2 mM PIC-1, sera 1:4, no secondary Ab): 0
Gel card score (red blood cells; Table 12: 10 mM Cys 1eq, 0.2 mM PIC-1, sera 1:4, secondary Ab 1:4): 3+
Gel card score (red blood cells; Table 12: 10 mM Cys 1eq, 0.2 mM PIC-1, sera 1:100, no secondary Ab): 0
Gel card score (red blood cells; Table 12: 10 mM Cys 1eq, 0.2 mM PIC-1, sera 1:100, secondary Ab 1:4): 0
Gel card score (red blood cells; Table 12: 15 mM Cys 1eq, 0.2 mM PIC-1, sera 1:4, no secondary Ab): 0
Gel card score (red blood cells; Table 12: 15 mM Cys 1eq, 0.2 mM PIC-1, sera 1:4, secondary Ab 1:4): 1*
Gel card score (red blood cells; Table 12: 15 mM Cys 1eq, 0.2 mM PIC-1, sera 1:100, no secondary Ab): 0
Gel card score (red blood cells; Table 12: 15 mM Cys 1eq, 0.2 mM PIC-1, sera 1:100, secondary Ab 1:4): 0
Gel card score (red blood cells; Table 12: 20 mM Cys 1eq, 0.2 mM PIC-1, sera 1:4, no secondary Ab): 0
Gel card score (red blood cells; Table 12: 20 mM Cys 1eq, 0.2 mM PIC-1, sera 1:4, secondary Ab 1:4): 0
Gel card score (red blood cells; Table 12: 20 mM Cys 1eq, 0.2 mM PIC-1, sera 1:100, no secondary Ab): 0
Gel card score (red blood cells; Table 12: 20 mM Cys 1eq, 0.2 mM PIC-1, sera 1:100, secondary Ab 1:4): 0
Gel card score (red blood cells; Table 12: 20 mM GSH 2eq, 0.2 mM PIC-1, sera 1:4, no secondary Ab): 0
Gel card score (red blood cells; Table 12: 20 mM GSH 2eq, 0.2 mM PIC-1, sera 1:4, secondary Ab 1:4): 3+
Gel card score (red blood cells; Table 12: 20 mM GSH 2eq, 0.2 mM PIC-1, sera 1:100, no secondary Ab): 0
Gel card score (red blood cells; Table 12: 20 mM GSH 2eq, 0.2 mM PIC-1, sera 1:100, secondary Ab 1:4): 0
Gel card score (red blood cells; Table 12: […] Cys 1eq, 0.2 mM PIC-1, sera 1:4, no secondary Ab): 2+
Gel card score (red blood cells; Table 12: […] Cys 1eq, 0.2 mM PIC-1, sera 1:4, secondary Ab 1:4): 4+
Gel card score (red blood cells; Table 12: […] Cys 1eq, 0.2 mM PIC-1, sera 1:100, no secondary Ab): 0
Gel card score (red blood cells; Table 12: […] Cys 1eq, 0.2 mM PIC-1, sera 1:100, secondary Ab 1:4): 3
Gel card score (red blood cells; Table 13: 0.2 mM PIC-1 no quencher, blood sample 1, sera 1:4): 4+
Gel card score (red blood cells; Table 13: 0.2 mM PIC-1 no quencher, blood sample 1, sera 1:100): 4+
Gel card score (red blood cells; Table 13: 0.2 mM PIC-1 no quencher, blood sample 2, sera 1:4): 4+
Gel card score (red blood cells; Table 13: 0.2 mM PIC-1 no quencher, blood sample 2, sera 1:100): 4+
